Data reported in patent publication US8338480B2, “Combination treatment of metabolic disorders” (Wellstat Therapeutics Corporation, priority 2006, dated 2012).
Structures can show the parent of a compound that is named as a salt.

Key:
Format in all cases: in vivo
Adiponectin = test: Serum adiponectin in db/db mice after two weeks (Example 4); details: for Adiponectin ± SD: db/db mice serum, compound alone 100 mg/kg; for effect on adiponectin with concurrent rosiglitazone (in words) / serum adiponectin, individual agents (in words): db/db mice; for effect on adiponectin with concurrent rosiglitazone (in words): 100 mg/kg + RSG 3 mg/kg; for serum adiponectin, individual agents (in words): agent alone
Excerpt: Adiponectin is an glycoprotein secreted from white adipose tissue. Adiponectin improves insulin sensitive in other tissues, e.g. muscle and liver, and is also protective against atherosclerosis. Thiazolidinedione antidiabetic agents such as rosiglitazone or pioglitazone act largely via action at the PPAR-gamma, a nuclear receptor involved in regulation of fuel metabolism. PPAR-gamma agonists enhance adiponectin production by adipose tissue, and this may contribute to their beneficial effects in diabetes and related metabolic disorders.
(§1) • 8. Vehicle (1% hydroxypropylmethylcellulose) • 9. Compound BI 100 mg/kg • 10. Rosiglitazone (RSG) 3 mg/kg • 11. Compound BI 100 mg/kg+RSG 3 mg/kg • 12. Compound CF 100 mg/kg • 13. Compound CF 100 mg/kg+RSG 3 mg/kg • 14. Compound CT 100 mg/kg+RSG 3 mg/kg • 15. […]
(§2) After two weeks, blood samples were collected from the retro-orbital sinus and processed for serum chemistry measurements.

db/db mice [1] = test: Serum glucose in db/db mice after two weeks (Example 4); details: compound alone 100 mg/kg
Method: as §1, §2

Male C57B1/6 mice = test: Food intake and body weight of male C57Bl/6 mice under restricted feeding (Example 3); details: for Post-treatment Food Intake (5 Hour): 5 hour meal; for food intake (in words): restricted feeding paradigm; for Change in Body weight % / Change in Body weight (grams ± SEM) / Post-treatment Body weight: restricted feeding
Method: Animals. […] Food was withheld for the remainder of each day. Because of the restricted feeding time, the mice eat less than under ad libitum food availability. Therefore, reduction of food intake in this model requires a drug effect sufficient to overcome the hunger stimulus provided by subnormal daily food intake. Drug Administration. Groups of 10 mice each (individually weighed and marked, divided into 5/cage and trained and monitored as above; were dosed once per day with Compound BI (100 mg/kg), rosiglitazone (3 mg/kg), both drugs, or vehicle by oral gavage at 8 AM for four consecutive days. Comparator groups receiving appetite modulators not suitable for oral dosing (PYY and cerulenin) received intraperitoneal injections at 8 AM for four consecutive days. […] [table]

db/db mice [2] = test: Serum glucose in db/db mice, combinations with rosiglitazone or pioglitazone, 4 weeks (Example 5); details: 4 weeks oral once per day
Method: Male db/db mice have a defect in the receptor for the appetite-regulating protein leptin and consequently develop hyperphagia, obesity, insulin resistance, hyperglycemia, hypertriglyceridemia. Male db/db mice are an accepted animal model for Type II diabetes. The effect of a range of single daily doses of orally administered Compound BI was assessed in this model, and the efficacy of rosiglitazone alone and in combination with Compound BI was also examined.
Male C57BL/Ksola db/db mice (“db/db mice”) were obtained from Harlan (Indianapolis, Ind.) and allowed to acclimate for a minimum of one week.
Body weights and blood glucose levels were measured and animals were sorted groups of 6-7 mice with equivalent mean body weights in each group. […].
• 12. Vehicle • 13. Compound BI 100 mg/kg/day • 14. Rosiglitazone 3 mg/kg • 15. Rosiglitazone 3 mg/kg+Compound BI 100 mg/kg • 16. Pioglitazone 30 mg/kg • 17. Pioglitazone 30 mg/kg+Compound BI 100 mg/kg • 18. Pioglitazone 100 mg/kg • 19. Pioglitazone 100 mg/kg+Compound BI 100 mg/kg
Drug preparation: Compound BI was suspended in a vehicle comprising 1% aqueous hydroxypropylmethylcellulose, using a tissue homogenizer to minimize particle size and maximize uniformity of the suspension. Pioglitazone and rosiglitazone were suspended in the same vehicle after pulverization of commercial tablets of each of these drugs. Drug concentrations in the dosing suspension for each treatment group were adjusted according to body weights so that a constant volume of 0.4 ml provided appropropriate drug doses in all groups.
Drug Administration: Drugs were administered orally by gavage once per day for 28 days.
Blood sampling: For serum chemistry analysis, nonfasting blood samples (200 microliters) were obtained via the retro-orbital sinus and collected in serum separator tubes at 11 AM on day 28 after initiation of drug administration.

[3] = Cerulenin 30 mg/kg i.p. once per day
[4] = PYY 100 mg/kg i.p. once per day

| Compound | Adiponectin ± SD (Adiponectin) [micrograms/ml] | effect on adiponectin with concurrent rosiglitazone (in words) (Adiponectin) | serum adiponectin, individual agents (in words) (Adiponectin) | Glucose ± SD (db/db mice [1]) [mg/dL] | food intake (in words) (Male C57B1/6 mice) | other results |
| --- | --- | --- | --- | --- | --- | --- |
| Cc1cccc(C)c1COc1cccc(CC(=O)O)c1 [Compound CF, 3-(2,6-Dimethylbenzyloxy)phenylacetic acid] | 6.5 ± 2.0 | strongly amplify the effect of concurrent rosiglitazone on adiponectin | did not elevate serum adiponectin levels | 305 ± 75 |  |  |
| Cc1cccc(C)c1COc1cccc(CC(=O)NO)c1 [Compound CT, N-Hydroxy-2-[3-(2,6-dimethylbenzyloxy)phenyl]acetamide] | 5.4 ± 1.5 | strongly amplify the effect of concurrent rosiglitazone on adiponectin | did not elevate serum adiponectin levels | 235 ± 107 |  |  |
| C/C=C/C/C=C/CCC(=O)[C@H]1O[C@H]1C(N)=O [Cerulenin] |  |  |  |  | failed to have an effect | Post-treatment Food Intake (5 Hour) (Male C57B1/6 mice; [3]): 2.45 ± 0.10 grams; Change in Body weight % (Male C57B1/6 mice; [3]): +0.81 ± 0.49%; Change in Body weight (grams ± SEM) (Male C57B1/6 mice; [3]): +0.16 ± 0.10 grams; Post-treatment Body weight (Male C57B1/6 mice; [3]): 21.18 ± 0.66 grams |
| Peptide YY fragment 3-36 human [PYY] |  |  |  |  | failed to have an effect | Post-treatment Food Intake (5 Hour) (Male C57B1/6 mice; [4]): 2.28 ± 0.25 grams; Change in Body weight % (Male C57B1/6 mice; [4]): −0.96 ± 0.50%; Change in Body weight (grams ± SEM) (Male C57B1/6 mice; [4]): −0.20 ± 0.10 grams; Post-treatment Body weight (Male C57B1/6 mice; [4]): 20.86 ± 0.33 grams |
| CCc1ccc(CCOc2ccc(CC3SC(=O)NC3=O)cc2)nc1 (centres unmarked) [PIO, pioglitazone hydrochloride] |  |  |  |  |  | Serum Glucose (mg/dL) Mean ± SD (db/db mice [2]; PIO 30 mg/kg): 550 ± 74 mg/dL; Serum Glucose (mg/dL) Mean ± SD (db/db mice [2]; PIO 100 mg/kg): 597 ± 228 mg/dL |
